Values quoted from earlier work as cited in patent US20240139197A1, “INHIBITION OF KDM5A FOR PROMOTING ANTIGEN PRESENTATION, INCREASING CD8+ T CELL INFILTRATION AND BOOSTING ANTI-TUMOR IMMUNE RESPONSE” (The Wistar Institute of Anatomy and Biology, priority 2022, published 2024).
Read-outs that look alike come from different tables or passages of the source.

Key:
KDM5A [1] = molecular target: T1, KDM5A (Homo sapiens (Human), UniProt P29375); conditions: biochemical assay with pre-incubation; cited from earlier work
KDM5B = KDM5B (Homo sapiens (Human), UniProt Q9UGL1); conditions: biochemical assay with pre-incubation; cited from earlier work
KDM4C = KDM4C (Homo sapiens (Human), UniProt Q9H3R0); conditions: biochemical assay with pre-incubation; cited from earlier work
KDM5A [2] = molecular target: T1, KDM5A; conditions: KDM5A inhibitors disclosed in Miyake et al; cited from earlier work

T1 sequence (P29375 whole entry): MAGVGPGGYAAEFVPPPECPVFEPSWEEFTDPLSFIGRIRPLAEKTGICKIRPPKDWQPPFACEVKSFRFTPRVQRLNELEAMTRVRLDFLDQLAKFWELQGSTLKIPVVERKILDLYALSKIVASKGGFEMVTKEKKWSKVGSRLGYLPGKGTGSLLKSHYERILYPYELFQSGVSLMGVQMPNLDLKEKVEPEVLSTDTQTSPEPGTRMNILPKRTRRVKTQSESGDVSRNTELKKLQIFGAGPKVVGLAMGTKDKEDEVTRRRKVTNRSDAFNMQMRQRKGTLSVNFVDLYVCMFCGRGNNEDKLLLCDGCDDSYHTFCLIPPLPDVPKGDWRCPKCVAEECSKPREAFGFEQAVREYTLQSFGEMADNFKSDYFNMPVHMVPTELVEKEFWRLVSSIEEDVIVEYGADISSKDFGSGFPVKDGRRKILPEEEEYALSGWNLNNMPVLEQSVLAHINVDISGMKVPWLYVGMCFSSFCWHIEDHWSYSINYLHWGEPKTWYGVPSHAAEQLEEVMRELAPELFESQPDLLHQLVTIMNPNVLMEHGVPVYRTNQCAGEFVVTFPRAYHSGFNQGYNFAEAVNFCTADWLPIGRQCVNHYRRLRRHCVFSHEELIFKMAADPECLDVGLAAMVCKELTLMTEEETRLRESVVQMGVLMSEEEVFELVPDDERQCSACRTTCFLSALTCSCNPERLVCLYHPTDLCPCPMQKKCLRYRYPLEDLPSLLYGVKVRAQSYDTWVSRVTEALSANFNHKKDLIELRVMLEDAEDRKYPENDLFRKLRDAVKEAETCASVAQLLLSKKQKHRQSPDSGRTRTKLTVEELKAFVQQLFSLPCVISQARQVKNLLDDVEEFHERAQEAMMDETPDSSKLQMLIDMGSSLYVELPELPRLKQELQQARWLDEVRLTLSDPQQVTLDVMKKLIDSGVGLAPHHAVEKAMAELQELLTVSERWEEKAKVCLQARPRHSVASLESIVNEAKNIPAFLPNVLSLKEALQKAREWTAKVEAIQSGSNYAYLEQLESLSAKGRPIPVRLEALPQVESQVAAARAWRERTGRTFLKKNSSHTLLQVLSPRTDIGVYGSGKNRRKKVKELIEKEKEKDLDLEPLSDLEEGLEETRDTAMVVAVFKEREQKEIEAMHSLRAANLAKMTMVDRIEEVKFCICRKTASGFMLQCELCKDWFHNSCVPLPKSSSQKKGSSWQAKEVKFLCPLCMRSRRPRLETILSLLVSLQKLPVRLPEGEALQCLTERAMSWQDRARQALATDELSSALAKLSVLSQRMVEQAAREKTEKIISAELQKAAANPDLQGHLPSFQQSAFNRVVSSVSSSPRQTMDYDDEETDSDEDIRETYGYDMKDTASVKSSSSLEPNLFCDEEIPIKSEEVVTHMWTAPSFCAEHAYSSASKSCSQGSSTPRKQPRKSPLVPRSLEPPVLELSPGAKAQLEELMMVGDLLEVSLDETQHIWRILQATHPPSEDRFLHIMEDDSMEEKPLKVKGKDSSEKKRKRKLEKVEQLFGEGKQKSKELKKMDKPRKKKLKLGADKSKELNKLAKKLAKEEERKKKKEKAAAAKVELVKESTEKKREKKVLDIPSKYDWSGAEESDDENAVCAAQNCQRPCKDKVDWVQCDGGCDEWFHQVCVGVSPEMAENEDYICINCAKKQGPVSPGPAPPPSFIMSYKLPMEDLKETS
Sequence of KDM4C (Q9H3R0 whole entry, species assumed): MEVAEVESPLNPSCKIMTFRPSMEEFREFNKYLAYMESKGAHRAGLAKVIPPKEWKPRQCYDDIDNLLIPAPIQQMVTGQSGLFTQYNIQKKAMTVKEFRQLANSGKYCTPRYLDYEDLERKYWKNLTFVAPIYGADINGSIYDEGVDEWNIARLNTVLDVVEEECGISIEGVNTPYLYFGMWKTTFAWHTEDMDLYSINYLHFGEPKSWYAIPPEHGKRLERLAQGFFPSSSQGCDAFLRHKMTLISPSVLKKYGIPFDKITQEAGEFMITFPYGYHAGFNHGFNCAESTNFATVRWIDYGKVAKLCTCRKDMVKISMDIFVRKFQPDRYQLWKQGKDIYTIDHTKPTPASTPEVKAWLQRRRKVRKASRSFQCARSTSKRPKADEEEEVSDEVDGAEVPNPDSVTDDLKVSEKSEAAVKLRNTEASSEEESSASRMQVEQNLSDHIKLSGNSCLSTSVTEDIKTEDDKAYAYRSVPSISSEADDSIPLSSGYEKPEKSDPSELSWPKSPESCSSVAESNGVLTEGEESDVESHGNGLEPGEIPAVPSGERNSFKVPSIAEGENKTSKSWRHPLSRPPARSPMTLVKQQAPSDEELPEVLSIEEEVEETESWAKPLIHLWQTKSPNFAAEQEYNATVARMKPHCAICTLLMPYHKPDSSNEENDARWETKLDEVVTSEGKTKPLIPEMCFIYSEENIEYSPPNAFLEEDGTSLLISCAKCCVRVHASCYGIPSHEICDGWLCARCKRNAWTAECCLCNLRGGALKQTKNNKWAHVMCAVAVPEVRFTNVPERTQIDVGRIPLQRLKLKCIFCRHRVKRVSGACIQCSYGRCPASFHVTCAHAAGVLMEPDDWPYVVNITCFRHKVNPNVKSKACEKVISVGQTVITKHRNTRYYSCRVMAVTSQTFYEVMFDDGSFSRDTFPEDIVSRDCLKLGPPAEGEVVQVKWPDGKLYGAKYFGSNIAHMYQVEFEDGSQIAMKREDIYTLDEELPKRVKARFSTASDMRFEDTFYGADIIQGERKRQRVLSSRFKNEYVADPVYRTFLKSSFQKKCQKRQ
Sequence of KDM5B (Q9UGL1 whole entry, species assumed): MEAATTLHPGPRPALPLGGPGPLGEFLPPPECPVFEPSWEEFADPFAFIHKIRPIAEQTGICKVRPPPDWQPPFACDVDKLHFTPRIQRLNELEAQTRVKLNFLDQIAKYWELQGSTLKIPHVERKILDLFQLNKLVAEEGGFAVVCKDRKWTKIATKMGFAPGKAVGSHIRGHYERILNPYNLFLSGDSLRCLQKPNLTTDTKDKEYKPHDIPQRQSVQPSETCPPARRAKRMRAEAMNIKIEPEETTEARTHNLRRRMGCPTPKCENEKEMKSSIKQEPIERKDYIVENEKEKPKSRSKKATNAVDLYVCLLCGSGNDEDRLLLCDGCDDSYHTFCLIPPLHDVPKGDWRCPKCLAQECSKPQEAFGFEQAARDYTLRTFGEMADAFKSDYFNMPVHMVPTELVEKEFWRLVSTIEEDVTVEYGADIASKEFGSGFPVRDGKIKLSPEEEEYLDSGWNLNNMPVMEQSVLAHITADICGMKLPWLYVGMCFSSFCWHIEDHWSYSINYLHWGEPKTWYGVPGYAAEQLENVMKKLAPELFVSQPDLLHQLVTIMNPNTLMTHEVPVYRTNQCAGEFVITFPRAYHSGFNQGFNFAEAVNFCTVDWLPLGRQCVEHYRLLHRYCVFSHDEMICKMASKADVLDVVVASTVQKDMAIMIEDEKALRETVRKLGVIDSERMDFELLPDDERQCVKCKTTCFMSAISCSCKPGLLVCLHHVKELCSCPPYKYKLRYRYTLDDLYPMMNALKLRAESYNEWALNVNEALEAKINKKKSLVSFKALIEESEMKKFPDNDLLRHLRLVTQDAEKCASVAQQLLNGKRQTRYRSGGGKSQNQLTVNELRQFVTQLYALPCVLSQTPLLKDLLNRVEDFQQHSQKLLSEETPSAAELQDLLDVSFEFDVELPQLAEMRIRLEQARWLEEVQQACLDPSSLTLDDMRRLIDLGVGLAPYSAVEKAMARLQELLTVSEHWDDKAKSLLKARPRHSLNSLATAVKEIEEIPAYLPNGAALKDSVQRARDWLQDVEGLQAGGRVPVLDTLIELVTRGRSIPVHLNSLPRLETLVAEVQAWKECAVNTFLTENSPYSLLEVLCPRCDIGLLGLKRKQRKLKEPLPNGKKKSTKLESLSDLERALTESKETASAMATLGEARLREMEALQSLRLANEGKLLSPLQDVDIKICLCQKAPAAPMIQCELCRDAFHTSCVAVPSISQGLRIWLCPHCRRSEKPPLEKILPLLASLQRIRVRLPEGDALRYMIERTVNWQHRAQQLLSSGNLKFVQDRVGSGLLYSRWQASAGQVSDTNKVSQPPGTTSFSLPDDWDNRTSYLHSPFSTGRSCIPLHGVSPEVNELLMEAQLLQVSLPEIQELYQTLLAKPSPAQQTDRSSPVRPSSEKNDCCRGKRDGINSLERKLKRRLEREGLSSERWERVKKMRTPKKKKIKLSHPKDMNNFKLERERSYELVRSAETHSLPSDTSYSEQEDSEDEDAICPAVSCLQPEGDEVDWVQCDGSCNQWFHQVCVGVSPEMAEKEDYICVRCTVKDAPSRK

SMILES	IC50 (KDM5A [1])	IC50 (KDM5B)	IC50 (KDM4C)	IC50 (KDM5A [2])
Cc1cc(Cl)ccc1COc1ccnn1-c1cc(C(=O)O)ccn1 [Compound 33]	13 nM	2 nM	41 nM	–
CCCCCCN(C)Cc1cc(-c2[nH]c3c(C#N)cnn3c(=O)c2C(C)C)cs1 [Compound 12]	–	–	–	179 ± 12 nM
CCCCCCN(C)CCc1ccc(-c2[nH]c3c(C#N)cnn3c(=O)c2C(C)C)cc1 [Compound 13]	–	–	–	4.37 ± 0.19 nM
COc1cc(Cl)ccc1COc1ccnn1-c1cc(C(=O)O)ccn1 [Compound 34]	12 nM	–	38 nM	–
CCCCCCN(C)Cc1cccc(-c2[nH]c3c(C#N)cnn3c(=O)c2C(C)C)c1 [Compound 11]	–	–	–	65.3 ± 8.6 nM
CCOc1cc(Cl)ccc1COc1ccnn1-c1cc(C(=O)O)ccn1 [Compound 35]	–	4 nM	78 nM	–
O=C(O)c1ccnc(-n2nccc2OCc2ccc(Cl)cc2OCC2CC2)c1 [Compound 36]	–	–	280 nM	–
O=C(O)c1ccnc(-n2nccc2OCc2ccc(Cl)cc2F)c1 [Compound 32]	18 nM	4 nM	–	–
